Results published in paper PMC9944328 (Nature Communications, 2023).
“And” between values parts separate entries of the source, which are not always exact repeats. Equal entries are not always repeated.

How the values were obtained:
[1] = biological target: SSTR2 mutants (Homo sapiens, UniProt P30874); assay: SSTRs Gi-mediated cAMP inhibition, GloSensor, HEK293, 5 μM forskolin, 15 min room temperature (SSTR2 mutants); type: cell-based; set-up: Best-fit Bottom, cAMP inhibition / Best-fit Top, cAMP inhibition / Span, cAMP inhibition / Bottom (best-fit value) / Top (best-fit value) / Span (best-fit value) / Span (best-fit) / Bottom (best-fit) / Top (best-fit) / Best-fit Bottom / Best-fit Top / Best-fit Span / Top / Span: scale not given here
Sequence of SSTR2 mutants (Homo sapiens, UniProt P30874) (P30874 whole entry Y205R): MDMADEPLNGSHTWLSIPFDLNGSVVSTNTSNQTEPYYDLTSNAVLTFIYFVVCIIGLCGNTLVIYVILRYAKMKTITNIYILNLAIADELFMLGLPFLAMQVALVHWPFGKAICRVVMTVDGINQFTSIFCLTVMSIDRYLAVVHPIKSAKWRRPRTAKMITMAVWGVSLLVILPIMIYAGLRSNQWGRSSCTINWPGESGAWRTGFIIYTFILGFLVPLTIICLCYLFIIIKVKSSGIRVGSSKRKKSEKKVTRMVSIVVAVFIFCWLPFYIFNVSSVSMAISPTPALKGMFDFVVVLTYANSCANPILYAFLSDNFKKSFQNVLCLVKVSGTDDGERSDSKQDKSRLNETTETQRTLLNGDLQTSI
Experimental: (§1) The levels of the intracellular 3′, 5′-cyclic AMP (cAMP) were measured by the GloSensor cAMP assay (Promega) as described in the previous studies[28],[41] which has been widely used. The human full-length SSTRs and mutants were cloned into the pcDNA3.1+ vector with a HA signal sequence followed by a Flag tag at the N-terminus. HEK293 cells (ATCC, CRL-1573) were seeded into 6-well microplates at a density of 1.0 × 10^6 cells/well and cultured for 24 h at 37 °C with 5% CO2. Cells were then co-transfected with SSTR wild-type or mutants and GloSensor plasmids. After 24 h of transfection, the cells were dissociated with TrypLE™ Express Enzyme (1X) (Thermo Fisher Scientific) and collected by centrifugation at 500 × g for 5 min. Then the collected cells were suspended in Hank’s balanced salt solution [HBSS (Thermo Fisher Scientific)] supplemented with […] (YEASEN), and then the suspension cells were seeded into 96-well plates with 90 μl/well. After incubating at room temperature for 40 min, 5 μM forskolin and ligands diluted in HBSS were added to each well and the plates were incubated at room temperature for 15 min. […] were measured using the Synergy H1 microplate reader (BioTek) and the data presented are means of at least three independent experiments.

[2] = biological target: T1, SSTR2 mutants (Homo sapiens, UniProt P30874, I195A); assay: as above; type: cell-based; set-up: Best-fit Bottom, cAMP inhibition / Best-fit Top, cAMP inhibition / Span, cAMP inhibition / Bottom (best-fit value) / Top (best-fit value) / Span (best-fit value) / Span (best-fit) / Bottom (best-fit) / Top (best-fit) / Best-fit Bottom / Best-fit Top / Best-fit Span / Top / Span: scale not given here; conditions: I195A, best-fit, runs 1-3
T1 construct: The human full-length SSTRs and mutants were cloned into the pcDNA3.1+ vector; expressed in transfected cells; host or cells: HEK293 (ATCC, CRL-1573)
T1 sequence (P30874 whole entry I195A): as the sequence (P30874 whole entry Y205R) above, with I195A, R205Y counted along it
Experimental: as §1

[3] = biological target: T2, SSTR2 mutants (Homo sapiens, UniProt P30874, L99A); assay: as above; type: cell-based; set-up: Best-fit Bottom, cAMP inhibition / Best-fit Top, cAMP inhibition / Span, cAMP inhibition / Bottom (best-fit value) / Top (best-fit value) / Span (best-fit value) / Span (best-fit) / Bottom (best-fit) / Top (best-fit) / Best-fit Bottom / Best-fit Top / Best-fit Span / Top / Span: scale not given here; conditions: L99A, best-fit, runs 1-3
T2 construct: The human full-length SSTRs and mutants were cloned into the pcDNA3.1+ vector; expressed in transfected cells; host or cells: HEK293 (ATCC, CRL-1573)
T2 sequence (P30874 whole entry L99A): as the sequence (P30874 whole entry Y205R) above, with L99A, R205Y counted along it
Experimental: as §1

[4] = biological target: T3, SSTR2 mutants (Homo sapiens, UniProt P30874, T194A); assay: as above; type: cell-based; set-up: Best-fit Bottom, cAMP inhibition / Best-fit Top, cAMP inhibition / Span, cAMP inhibition / Bottom (best-fit value) / Top (best-fit value) / Span (best-fit value) / Span (best-fit) / Bottom (best-fit) / Top (best-fit) / Best-fit Bottom / Best-fit Top / Best-fit Span / Top / Span: scale not given here; conditions: T194A, best-fit, runs 1-3
T3 construct: The human full-length SSTRs and mutants were cloned into the pcDNA3.1+ vector; expressed in transfected cells; host or cells: HEK293 (ATCC, CRL-1573)
T3 sequence (P30874 whole entry T194A): as the sequence (P30874 whole entry Y205R) above, with T194A, R205Y counted along it
Experimental: as §1

[5] = biological target: T4, SSTR2 mutants (Homo sapiens, UniProt P30874, Y50A); assay: as above; type: cell-based; set-up: Best-fit Bottom, cAMP inhibition / Best-fit Top, cAMP inhibition / Span, cAMP inhibition / Bottom (best-fit value) / Top (best-fit value) / Span (best-fit value) / Span (best-fit) / Bottom (best-fit) / Top (best-fit) / Best-fit Bottom / Best-fit Top / Best-fit Span / Top / Span: scale not given here; conditions: Y50A, best-fit, runs 1-3
T4 construct: The human full-length SSTRs and mutants were cloned into the pcDNA3.1+ vector; expressed in transfected cells; host or cells: HEK293 (ATCC, CRL-1573)
T4 sequence (P30874 whole entry Y50A): as the sequence (P30874 whole entry Y205R) above, with Y50A, R205Y counted along it
Experimental: as §1

[6] = test system: SSTR2; assay: β-arrestin recruitment with co-transfection of GRK2; type: cell-based, human; conditions: N276(6.55)A and F294(7.35)A with GRK2 co-transfection
Experimental: In addition, we measured the function of the residues located in the core region and the common ligand binding pocket.
Human full-length β-arrestin 1 was cloned into pcDNA3.1+ vector with the large fragment (LgBiT) of the NanoBiT system and a 15-amino acid flexible linker ([sequence]) at the N-terminus. Human full-length SSTR wild-type and mutant vectors were C-terminally fused with a 15-amino acid flexible linker and the small fragment (SmBiT). HEK293 cells were seeded into six-well microplates at a density of 1.0 × 10^6 cells/well and cultured for 24 h at 37 °C with 5% CO2. After that, cells were co-transfected with pcDNA3.1+ vectors encoding SSTR wild-type or mutants and human β-arrestin 1. After transfecting for 24 h, the transfected cells were suspended and seeded into white 96-well plates, and then cultured at 37 °C overnight. After that the medium in each well was exchanged for 90 μl of 0.01% bovine serum albumin containing 20 μl of 50 μM coelenterazine h (Carbosynth) diluted in the HBSS assay buffer and incubated for 40 min at room temperature. Then, ligands diluted in the assay buffer was added to each well and the luminescence intensity was measured using the Synergy H1 microplate reader and detected at room temperature in a time period. All data presented are means of at least three independent experiments.

[7] = biological target: SSTR2 mutants (Homo sapiens, UniProt P30874, N276A); assay: cell-based
Sequence of SSTR2 mutants (Homo sapiens, UniProt P30874, N276A) (P30874 whole entry N276A): as the sequence (P30874 whole entry Y205R) above, with R205Y, N276A counted along it

[8] = biological target: SSTR2 mutants (Homo sapiens, UniProt P30874, R140A); assay: cell-based
Sequence of SSTR2 mutants (Homo sapiens, UniProt P30874, R140A) (P30874 whole entry R140A): as the sequence (P30874 whole entry Y205R) above, with R140A, R205Y counted along it

[9] = biological target: SSTR2 mutants (Homo sapiens, UniProt P30874, Y312A); assay: cell-based
Sequence of SSTR2 mutants (Homo sapiens, UniProt P30874, Y312A) (P30874 whole entry Y312A): as the sequence (P30874 whole entry Y205R) above, with R205Y, Y312A counted along it

[10] = biological target: SSTR2 mutants (Homo sapiens, UniProt P30874, I284A); assay: SSTRs Gi-mediated cAMP inhibition, GloSensor, HEK293, 5 μM forskolin, 15 min room temperature (SSTR2 mutants); type: cell-based; set-up: The human full-length SSTRs and mutants were cloned into the pcDNA3.1+ vector; expressed in transfected cells; host or cells: HEK293 (ATCC, CRL-1573); Best-fit Bottom, cAMP inhibition / Best-fit Top, cAMP inhibition / Span, cAMP inhibition / Bottom (best-fit value) / Top (best-fit value) / Span (best-fit value) / Span (best-fit) / Bottom (best-fit) / Top (best-fit) / Best-fit Bottom / Best-fit Top / Best-fit Span / Top / Span: scale not given here; conditions: I284A, best-fit, runs 1-3
Sequence of SSTR2 mutants (Homo sapiens, UniProt P30874, I284A) (P30874 whole entry I284A): as the sequence (P30874 whole entry Y205R) above, with R205Y, I284A counted along it
Experimental: as §1

[11] = test system: acromegalic patients; conditions: cited from earlier work
Description: Somatostatin receptors (SSTRs) are members of the G protein-coupled receptor (GPCR) superfamily and contain five subtypes (SSTR1–5). SSTRs, especially SSTR2, are expressed at high levels in NETs and have emerged as important biomarkers[4],[6]. SSTRs and their endogenous ligands, somatostatin (SST) peptides, exert important physiological regulation of neuroendocrine functions. […] However, the use of SST for disease treatment is li ... || SSTR2 transmits extracellular signals into cells through Gαi/o coupling and β-arrestin recruitment pathways. cAMP inhibition causes decreased hormone secretion and cell proliferation[13],[14], while the β-arrestin recruitment results in subsequent receptor internalization thus influence the cell membrane distribution level and desensitization of SSTR2, which may lead to drug resistance and poor clinical curative effect[15]–[18].

`N#Cc1cccc(-c2ccc3ncc(-c4cc(F)cc(F)c4)c(N4CCC(N)CC4)c3c2)c1O` [paltusotine] gave an EC50 ([1]; EC50, D295F, run 1) of 0.324 nM, an EC50 ([1]; EC50, D295F, run 2) of 0.205 nM and an EC50 ([1]; EC50, D295F, run 3) of 1.56 nM. The EC50 ([1]; EC50, F294Y, run 1) was 0.735 nM, the EC50 ([1]; EC50, F294Y, run 3) was 0.676 nM and the EC50 ([1]; EC50, Y205R, run 1) was 0.344 nM. For the same compound, the EC50 ([1]; EC50, Y205R, run 2) was 0.237 nM, the Span [2] was 93.79 and 93.25 and 119.7 and the Top [2] was 101.8 and 93.82 and 123. For the same compound, the Span [3] was 97 and 104.2 and 101.2, the Top [3] was 103.3 and 108.8 and 111.2 and the Span [4] was 81 and 79.63 and 75.68. For the same compound, the Top [4] was 82.51 and 80.87 and 82.26, the Span [5] was 121 and 122.3 and the Top [5] was 113.5 and 115.2 and 115.4. The “β-arrestin recruitment with GRK2” value [6] was “influenced paltusotine induced β-arrestin recruitment”, the EC50 [7] was 145.2 ± 1.11 nM and the EC50 [8] was 7.8 ± 1.47 nM. The EC50 [9] was 8.13 ± 1.64 nM, the Span [10] was 112.7 and 91.59 and 139.6 and the Top [10] was 112.9 and 105.5 and 122.9.

For `C[C@@H](O)[C@@H]1NC(=O)[C@H](CCCCN)NC(=O)[C@@H](Cc2c[nH]c3ccccc23)NC(=O)[C@H](Cc2ccccc2)NC(=O)[C@@H](NC(=O)[C@H](N)Cc2ccccc2)CSSC[C@@H](C(=O)N[C@H](CO)[C@@H](C)O)NC1=O` [octreotide], the “β-arrestin recruitment with GRK2” value [6] is given as “nearly abolished”, the “Acromegalic patients who do not respond well” value [11] is given as ~ 30% and the “SSTR2 expression level during administration” value [11] is given as “down-regulated”.
